Assay results reported in PubChem BioAssay (NCI).
Values joined by “and” are separate entries in the source; they are usually repeats but may differ in a detail not shown here. Identical values can stand only once.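 Following 48 hours of exposure in 96-well plates, responses at five concentrations were used to interpolate endpoints linearly. GI50 = concentration required for 50% inhibition of growth. TGI: total growth inhibition.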

Tests used:
Experiment in all cases: NCI anticancer screen, dose series, 48 h; in the data active means GI50 below about 0.43 µM; inactive means the rest
786-0 renal = system: 786-0 renal
A498 renal = system: A498 renal
A549 NSCLC = system: A549 NSCLC
ACHN renal = system: ACHN renal
BT-549 breast = system: BT-549 breast
CAKI-1 renal = system: CAKI-1 renal
CCRF-CEM leukemia = system: CCRF-CEM leukemia
COLO 205 colon = system: COLO 205 colon
DU-145 prostate = system: DU-145 prostate
EKVX NSCLC = system: EKVX NSCLC
HCC-2998 colon = system: HCC-2998 colon
HCT-116 colon = system: HCT-116 colon
HCT-15 colon = system: HCT-15 colon
HL-60(TB) leukemia = system: HL-60(TB) leukemia
HOP-62 NSCLC = system: HOP-62 NSCLC
HOP-92 NSCLC = system: HOP-92 NSCLC
HS 578T breast = system: HS 578T breast
HT29 colon = system: HT29 colon
IGROV1 ovarian = system: IGROV1 ovarian
KM12 colon = system: KM12 colon
LOX IMVI melanoma = system: LOX IMVI melanoma
M14 melanoma = system: M14 melanoma
MALME-3M melanoma = system: MALME-3M melanoma
MCF7 breast = system: MCF7 breast
MDA-MB-231 breast = system: MDA-MB-231 breast
MDA-MB-435 = system: MDA-MB-435
MDA-N = system: MDA-N
MOLT-4 leukemia = system: MOLT-4 leukemia
NCI-H226 lung = system: NCI-H226 lung
NCI-H23 lung = system: NCI-H23 lung
NCI-H460 lung = system: NCI-H460 lung
NCI-H522 lung = system: NCI-H522 lung
NCI/ADR-RES ovarian = system: NCI/ADR-RES ovarian
OVCAR-3 ovarian = system: OVCAR-3 ovarian
OVCAR-4 ovarian = system: OVCAR-4 ovarian
OVCAR-5 ovarian = system: OVCAR-5 ovarian
OVCAR-8 ovarian = system: OVCAR-8 ovarian
PC-3 prostate = system: PC-3 prostate
RPMI-8226 leukemia = system: RPMI-8226 leukemia
RXF 393 renal = system: RXF 393 renal
SF-268 CNS = system: SF-268 CNS
SF-295 CNS = system: SF-295 CNS
SF-539 CNS = system: SF-539 CNS
SK-MEL-2 melanoma = system: SK-MEL-2 melanoma
SK-MEL-28 melanoma = system: SK-MEL-28 melanoma
SK-MEL-5 melanoma = system: SK-MEL-5 melanoma
SK-OV-3 ovarian = system: SK-OV-3 ovarian
SN12C renal = system: SN12C renal
SNB-19 CNS = system: SNB-19 CNS
SNB-75 CNS = system: SNB-75 CNS
SR leukemia = system: SR leukemia
SW-620 colon = system: SW-620 colon
T-47D breast = system: T-47D breast
U251 CNS = system: U251 CNS
UACC-257 melanoma = system: UACC-257 melanoma
UACC-62 melanoma = system: UACC-62 melanoma
UO-31 renal = system: UO-31 renal
DLD-1 colon = system: DLD-1 colon
DMS 114 small cell lung = system: DMS 114 small cell lung
DMS 273 small cell lung = system: DMS 273 small cell lung
K-562 leukemia = system: K-562 leukemia
LXFL 529 NSCLC = system: LXFL 529 NSCLC
M19-MEL melanoma = system: M19-MEL melanoma
RXF-631 renal = system: RXF-631 renal
SNB-78 CNS = system: SNB-78 CNS
TK-10 renal = system: TK-10 renal
XF 498 CNS = system: XF 498 CNS

COc1ccc(-c2c(C#N)c(N)n(C3OCC(OC(C)=O)C(OC(C)=O)C3OC(C)=O)c(=S)c2C#N)cc1 (stereo unspecified)
> 100 µM: TGI (786-0 renal) | TGI (A549 NSCLC) | TGI (ACHN renal) | TGI (CAKI-1 renal) | TGI (COLO 205 colon) | TGI (DU-145 prostate) | TGI (EKVX NSCLC) | TGI (HCT-116 colon) | TGI (HCT-15 colon) | TGI (HOP-62 NSCLC) | TGI (HS 578T breast) | TGI (HT29 colon) | TGI (IGROV1 ovarian) | TGI (KM12 colon) | TGI (LOX IMVI melanoma) | TGI (M14 melanoma) | TGI (MALME-3M melanoma) | TGI (MCF7 breast) | TGI (MDA-MB-231 breast) | TGI (MDA-N) | TGI (NCI-H226 lung) | TGI (NCI-H23 lung) | TGI (NCI-H460 lung) | TGI (NCI-H522 lung) | TGI (NCI/ADR-RES ovarian) | TGI (OVCAR-3 ovarian) | TGI (OVCAR-4 ovarian) | TGI (OVCAR-5 ovarian) | TGI (OVCAR-8 ovarian) | TGI (PC-3 prostate) | TGI (SF-268 CNS) | TGI (SF-295 CNS) | TGI (SF-539 CNS) | TGI (SK-MEL-2 melanoma) | TGI (SK-MEL-28 melanoma) | TGI (SK-MEL-5 melanoma) | TGI (SN12C renal) | TGI (SNB-19 CNS) | TGI (SNB-75 CNS) | TGI (SW-620 colon) | TGI (U251 CNS) | TGI (UACC-257 melanoma) | TGI (UACC-62 melanoma)
81.6 µM and > 100 µM: TGI (T-47D breast)
88.8 µM and 98.5 µM: TGI (HOP-92 NSCLC)
60.9 µM and > 100 µM: TGI (HCC-2998 colon)
75.1 µM and 97.5 µM: TGI (RPMI-8226 leukemia)
77.8 µM and 98.3 µM: TGI (CCRF-CEM leukemia)
> 100 µM and 98.2 µM: TGI (RXF 393 renal)
inactive: GI50 (HS 578T breast) 33.5 µM and 76.2 µM
82.6 µM and > 100 µM: TGI (UO-31 renal)
36.5 µM and 35.9 µM: TGI (HL-60(TB) leukemia)
39.5 µM and 54.6 µM: TGI (SR leukemia)
78.7 µM and 99 µM: TGI (BT-549 breast)
51.1 µM and 48 µM: TGI (MOLT-4 leukemia)
98.6 µM and > 100 µM: TGI (MDA-MB-435)
70.1 µM and 84.2 µM: TGI (A498 renal)
85.2 µM and > 100 µM: TGI (SK-OV-3 ovarian)

CC(=O)CC(=O)OC1CC(C)CCC1C(C)C (stereo unspecified)
44 µM: TGI (CCRF-CEM leukemia)
46.1 µM: TGI (RPMI-8226 leukemia)
80.1 µM: TGI (HCT-116 colon)
> 100 µM: TGI (786-0 renal) | TGI (A498 renal) | TGI (A549 NSCLC) | TGI (ACHN renal) | TGI (CAKI-1 renal) | TGI (COLO 205 colon) | TGI (DLD-1 colon) | TGI (DMS 114 small cell lung) | TGI (DMS 273 small cell lung) | TGI (EKVX NSCLC) | TGI (HCC-2998 colon) | TGI (HCT-15 colon) | TGI (HOP-62 NSCLC) | TGI (HOP-92 NSCLC) | TGI (HT29 colon) | TGI (IGROV1 ovarian) | TGI (K-562 leukemia) | TGI (KM12 colon) | TGI (LOX IMVI melanoma) | TGI (LXFL 529 NSCLC) | TGI (M14 melanoma) | TGI (M19-MEL melanoma) | TGI (MALME-3M melanoma) | TGI (NCI-H23 lung) | TGI (NCI-H460 lung) | TGI (NCI-H522 lung) | TGI (OVCAR-3 ovarian) | TGI (OVCAR-4 ovarian) | TGI (OVCAR-5 ovarian) | TGI (OVCAR-8 ovarian) | TGI (RXF 393 renal) | TGI (RXF-631 renal) | TGI (SF-268 CNS) | TGI (SF-295 CNS) | TGI (SF-539 CNS) | TGI (SK-MEL-28 melanoma) | TGI (SK-MEL-5 melanoma) | TGI (SK-OV-3 ovarian) | TGI (SN12C renal) | TGI (SNB-19 CNS) | TGI (SNB-75 CNS) | TGI (SNB-78 CNS) | TGI (SW-620 colon) | TGI (TK-10 renal) | TGI (U251 CNS) | TGI (UACC-257 melanoma) | TGI (UACC-62 melanoma) | TGI (UO-31 renal) | TGI (XF 498 CNS)
44.2 µM: TGI (MOLT-4 leukemia)
78.8 µM: TGI (SK-MEL-2 melanoma)
40.2 µM: TGI (HL-60(TB) leukemia)

CCCCCCCCCCCCCCCCCCNc1ccn(C2OC(COP(=O)(O)OCC3OC(n4cc(F)c(=O)[nH]c4=O)CC3O)C(O)C2O)c(=O)n1 (stereo unspecified)
39.7 µM: TGI (OVCAR-5 ovarian)
> 78.1 µM: TGI (M14 melanoma)
> 50 µM: TGI (SF-268 CNS)
> 49.7 µM: TGI (CCRF-CEM leukemia)
> 55.5 µM: TGI (TK-10 renal)
18.2 µM: TGI (LOX IMVI melanoma)
17.9 µM: TGI (NCI-H23 lung)
41.8 µM: TGI (KM12 colon)
35.6 µM: TGI (RXF 393 renal)
> 53.3 µM: TGI (RPMI-8226 leukemia)
> 79.7 µM: TGI (BT-549 breast)
25.2 µM: TGI (MOLT-4 leukemia)
22.1 µM: TGI (HL-60(TB) leukemia)
> 74.4 µM: TGI (UACC-62 melanoma)
> 100 µM: TGI (786-0 renal) | TGI (A498 renal) | TGI (A549 NSCLC) | TGI (ACHN renal) | TGI (CAKI-1 renal) | TGI (DU-145 prostate) | TGI (EKVX NSCLC) | TGI (HCC-2998 colon) | TGI (HCT-116 colon) | TGI (HCT-15 colon) | TGI (HOP-62 NSCLC) | TGI (HOP-92 NSCLC) | TGI (HS 578T breast) | TGI (K-562 leukemia) | TGI (MALME-3M melanoma) | TGI (MDA-MB-231 breast) | TGI (MDA-MB-435) | TGI (MDA-N) | TGI (NCI-H226 lung) | TGI (NCI-H460 lung) | TGI (NCI-H522 lung) | TGI (OVCAR-3 ovarian) | TGI (OVCAR-4 ovarian) | TGI (OVCAR-8 ovarian) | TGI (SF-295 CNS) | TGI (SK-MEL-2 melanoma) | TGI (SK-MEL-28 melanoma) | TGI (SK-MEL-5 melanoma) | TGI (SK-OV-3 ovarian) | TGI (SN12C renal) | TGI (SNB-19 CNS) | TGI (SNB-75 CNS) | TGI (SW-620 colon) | TGI (T-47D breast) | TGI (U251 CNS) | TGI (UACC-257 melanoma) | TGI (UO-31 renal)
> 84.3 µM: TGI (HT29 colon)
> 48.6 µM: TGI (MCF7 breast)
28.8 µM: TGI (SR leukemia)
19.7 µM: TGI (PC-3 prostate)
35.8 µM: TGI (IGROV1 ovarian)
> 80.4 µM: TGI (COLO 205 colon)
> 54.8 µM: TGI (NCI/ADR-RES ovarian)
